The text below walks through data of paper PMC3356457 (Nature, 2012).

What is called Ki is the equilibrium dissociation constant of an inhibitor or competing ligand from its target. One may read the EC50 as the concentration giving half of the maximal effect.

Like-named read-outs stand apart in the source and are kept apart here.

For one assay, the target named is hKOR E297A (Homo sapiens, UniProt P41145, E297A). Type of assay: binding.
Assay [1] deals with KOR (Homo sapiens, UniProt P41145). Format: cell-based.
Sequence of KOR (Homo sapiens, UniProt P41145) (P41145 whole entry): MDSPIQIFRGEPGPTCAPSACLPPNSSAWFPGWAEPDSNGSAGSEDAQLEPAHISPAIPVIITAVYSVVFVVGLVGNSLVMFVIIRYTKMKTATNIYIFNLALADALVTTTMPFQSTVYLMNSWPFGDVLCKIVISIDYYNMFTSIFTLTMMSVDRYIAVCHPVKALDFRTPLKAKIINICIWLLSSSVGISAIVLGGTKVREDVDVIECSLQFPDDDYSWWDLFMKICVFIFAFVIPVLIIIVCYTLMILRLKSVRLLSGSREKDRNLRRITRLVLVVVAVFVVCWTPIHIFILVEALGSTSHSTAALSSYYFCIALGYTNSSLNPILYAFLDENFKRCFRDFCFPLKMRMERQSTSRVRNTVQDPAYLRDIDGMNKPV
In assay [2] the test system is KOR. The following applies: cited from earlier work.
The conditions of assay [3]: cited from earlier work.
For assay [4] the following is noted: cited from earlier work. The source holds these as a separate data set.
Assay [5] addresses KOR. The following applies: cited from earlier work. The source holds these as a separate data set.
The subject of assay [6] is KOR. The following applies: agonist; cited from earlier work.
In assay [7] the test system is KOR. The following applies: cited from earlier work. This is another data set of the same source.

Sequence of hKOR E297A (P41145 whole entry E297A): as the sequence (P41145 whole entry) above, with E297A counted along it

Consider `NC(N)=Nc1ccc2[nH]c3c(c2c1)C[C@@]1(O)[C@H]2Cc4ccc(O)c5c4[C@@]1(CCN2CC1CC1)[C@H]3O5` [GNTI], for which the “Effect of Glu297Ala mutation on binding” value on hKOR E297A is “significant drop”.

Take `CC(C)[C@@H](CN1CC[C@@](C)(c2cccc(O)c2)[C@@H](C)C1)NC(=O)[C@H]1Cc2ccc(O)cc2CN1` [JDTic, (3R)-7-hydroxy-N-[(1S)-1-(((3R,4R)-4-(3-hydroxyphenyl)-3,4-dimethyl-1-piperidinyl)methyl)-2-methylpropyl]-1,2,3,4-tetrahydro-3-isoquinoline-carboxamide]: the “Effect of Glu297Ala mutation on binding” value at hKOR E297A was “did not affect”. Besides, on KOR [1], the “Agonist activity, Gi-mediated (canonical) signaling” value is “devoid of agonist activity” and the “Blockade of the effects of agonist U69593, Gi-mediated signaling” value is recorded as “completely blocked”. In addition, the “Effect on κ-agonist U50,488-induced antinociception” value with KOR [2] was “blocks”. Besides, in assay [3], the “Effect on μ-agonist induced analgesia” value is “not antagonizing”. Also, the “Activity in rodent models of depression, anxiety, stress-induced cocaine relapse, and nicotine withdrawal” value in assay [4] is listed as “robust activity”.

As for `COC(=O)[C@@H]1C[C@H](OC(=O)CSC#N)C(=O)[C@H]2[C@@]1(C)CC[C@H]1C(=O)O[C@H](c3ccoc3)C[C@]21C` [RB-64, 22-thiocyanatosalvinorin A], the Ki on KOR [5] was 0.59 nM. Besides, the EC50 in the assay on KOR [6] was 0.077 nM.

For `COC(=O)[C@@H]1C[C@H](OC(C)=O)C(=O)[C@H]2[C@@]1(C)CC[C@H]1C(=O)O[C@H](c3ccoc3)C[C@]21C` [Salvinorin A], the KOR selectivity in the assay on KOR [7] was […]. In addition, the EC50 with KOR [7] (read-out: EC50, KOR agonist) was […].
